US8361964B2, “Growth hormone releasing factor (GRF) analogs and uses thereof” (Theratechnologies Inc., priority 2011, dated 2013)
Where a SMILES comes first, the peptide text is derived from it.

How the values were obtained:
[1] = tested on: Growth Hormone secretion; assay: Growth Hormone secretion in female mice after subcutaneous GRF analog; type: in vivo; conditions: female CD-1 mice; 10 μg/mouse subcutaneous; plasma 10 minutes after injection
From the text: (§1) CD-1 mice (female, weighting from 20 to 25 g) were obtained from Charles River Inc. Animals were used according to a protocol of the Animal Care Committee along with the principles of the Guide for the Care and Use of Experimental Animals of the Canadian Council on Animal Care. The animals were maintained on standard laboratory chow under a 12:12 light:dark cycle. They were kept in groups of 4 mice per cage.
At the day of the experiment, mice received a subcutaneous injection of GRF analog (10 μg/mouse dissolved in 20 mM sodium acetate (AcONa)+5% mannitol at pH 5). 10 minutes after injection, the mice were anesthezied with isolufrane. Blood samples (500 μl) were obtained by intra-cardiac puncture. Blood was placed into microtainer pre-treated with K3EDTA and immediately centrifuged at 13,000 RPM in a desktop centrifuge for 2 minutes. The plasma was collected and placed into a screwcap Eppendorf™ tube and quick frozen in liquid nitrogen. The samples were then kept at −80° C. until assayed. Determination of GH levels was performed as described below.
(§2) Rat and mouse plasma samples were vortexed carefully and centrifuged at 9,000 RPM for 2 min at 4° C. The dosage of GH levels was performed using the Rat/Mouse Growth Hormone ELISA kit from Millipore (Cat. # EZRMGH-45K). Sample supernatants were first diluted 20-fold with the GH ELISA assay buffer, and 10 μl of this dilution was added to the ELISA plate with 90 μl of GH EIA assay buffer. The remaining of the procedure was performed according to the manufacturer's instructions, and the data obtained were analyzed using GraphPad Prism™ software.
(§3) The GRF analogs described herein were tested for their ability to induce GH release in female mice and rats. […] The data are presented in Tables III (mice) and IV-V (rats).

[2] = tested on: Growth Hormone secretion; assay: Growth Hormone secretion in female rats after subcutaneous GRF analog; type: in vivo; conditions: female Sprague-Dawley rats; 10 μg/rat subcutaneous; plasma 0-60 minutes
From the text: as §1, with “Sprague-Dawley rats” for “CD-1 mice”, “250” for “20”, “300” for “25”, “rats” for “mice”
The animals were anesthetized with isoflurane 2.5%. A mid-section opening was made in the neck to expose the carotid artery. The carotid artery was canulated with polypropylene tubing (PE-50) to allow blood withdrawal. After surgical preparation, rats received a subcutaneous injection of GRF analog (10 μg/rat dissolved in 20 mM AcONa+5% mannitol at pH 5). For pharmacodynamics studies, blood samples (400 μL) were collected from 4 to 8 animals per group per time point. Blood samples (400 μl) were collected via the carotid catheter at 0, 10, 20, 30, 45 and 60 minutes after drug injection. Blood was placed into microtainer pre-treated with K3EDTA and immediately centrifuged at 13,000 RPM in a desktop centrifuge for 2 minutes. The plasma was collected and placed into a screw cap Eppendorf™ and quick frozen in liquid nitrogen. The samples were then kept at −80° C. until assayed. Determination of GH levels was performed as described below.
as §2, §3

Row | Structure (SMILES) | GH levels 10 min [1] [ng/mL] | Mean AUC (GH Area Under the curve, GH concentration over time) [2] | Mean Cmax (ng/ml) of Growth Hormone secretion [2] [ng/mL]
1 | CC[C@H](C)[C@H](NC(=O)[C@H](C)NC(=O)[C@H](CC(=O)O)NC(=O)[C@@H](C)NC(=O)[C@@H](N)Cc1ccc(O)cc1)C(=O)N[C@@H](Cc1ccccc1)C(=O)N[C@H](C(=O)N[C@@H](CC(=O)O)C(=O)N[C@@H](CO)C(=O)N[C@@H](Cc1ccc(O)cc1)C(=O)N[C@@H](CCCNC(=N)N)C(=O)N[C@@H](CCCCN)C(=O)N[C@H](C(=O)N[C@@H](CC(C)C)C(=O)N[C@@H](C)C(=O)N[C@@H](CCC(N)=O)C(=O)N[C@@H](CC(C)C)C(=O)N[C@@H](CCCCN)C(=O)N[C@@H](C)C(=O)N[C@@H](CCCNC(=N)N)C(=O)N[C@@H](CCC(N)=O)C(=O)N[C@@H](CC(=O)O)C(=O)N[C@@H](CC(C)C)C(=O)N[C@@H](CC(C)C)C(=O)N[C@@H](C)C(=O)N[C@@H](CCCNC(=N)N)C(=O)N[C@@H](C)C(=O)N[C@@H](C)C(=O)N[C@@H](CCCNC(=N)N)C(=O)N[C@@H](C)C(=O)N[C@@H](C)C(=O)N[C@@H](CCCNC(=N)N)C(N)=O)C(C)C)[C@@H](C)O [SEQ ID NO: 30, Y-a-DAIFTDSYRKVLAQLKARQDLLARAARAAR-NH2] (HELM PEPTIDE1{Y.[dA].D.A.I.F.T.D.S.Y.R.K.V.L.A.Q.L.K.A.R.Q.D.L.L.A.R.A.A.R.A.A.R.[am]}$$$$V2.0) | 493.3 | 12282 | 664.1
2 | CC/C=C/CC(=O)N[C@@H](Cc1ccc(O)cc1)C(=O)N[C@@H](C)C(=O)N[C@@H](CC(=O)O)C(=O)N[C@@H](C)C(=O)N[C@H](C(=O)N[C@@H](Cc1ccccc1)C(=O)N[C@H](C(=O)N[C@@H](CC(=O)O)C(=O)N[C@@H](CO)C(=O)N[C@@H](Cc1ccc(O)cc1)C(=O)N[C@@H](CCCNC(=N)N)C(=O)N[C@@H](CCCCN)C(=O)N[C@H](C(=O)N[C@@H](CC(C)C)C(=O)N[C@@H](C)C(=O)N[C@@H](CCC(N)=O)C(=O)N[C@@H](CC(C)C)C(=O)N[C@@H](CCCCN)C(=O)N[C@@H](C)C(=O)N[C@@H](CCCNC(=N)N)C(=O)N[C@@H](CCC(N)=O)C(=O)N[C@@H](CC(=O)O)C(=O)N[C@H](C(=O)N[C@@H](CC(C)C)C(=O)N[C@@H](C)C(=O)N[C@@H](CCCNC(=N)N)C(=O)N[C@@H](C)C(=O)N[C@@H](C)C(=O)N[C@@H](CCCNC(=N)N)C(=O)N[C@@H](C)C(=O)N[C@@H](C)C(=O)N[C@@H](CCCNC(=N)N)C(N)=O)[C@@H](C)CC)C(C)C)[C@@H](C)O)[C@@H](C)CC [SEQ ID NO: 31, Trans-3-hexenoyl-YADAIFTDSYRKVLAQLKARQDILARAARAAR-NH2] (HELM PEPTIDE1{[CC/C=C/CC(=O)[*:2]].Y.A.D.A.I.F.T.D.S.Y.R.K.V.L.A.Q.L.K.A.R.Q.D.I.L.A.R.A.A.R.A.A.R.[am]}$$$$V2.0) | 563.6 | 9093 | 459.9
3 | CC/C=C/CC(=O)N[C@@H](Cc1ccc(O)cc1)C(=O)N[C@@H](C)C(=O)N[C@@H](CC(=O)O)C(=O)N[C@@H](C)C(=O)N[C@H](C(=O)N[C@@H](Cc1ccccc1)C(=O)N[C@H](C(=O)N[C@@H](CC(=O)O)C(=O)N[C@@H](CO)C(=O)N[C@@H](Cc1ccc(O)cc1)C(=O)N[C@@H](CCCNC(=N)N)C(=O)N[C@@H](CCCCN)C(=O)N[C@H](C(=O)N[C@@H](CC(C)C)C(=O)N[C@@H](C)C(=O)N[C@@H](CCC(N)=O)C(=O)N[C@@H](CC(C)C)C(=O)N[C@@H](CO)C(=O)N[C@@H](C)C(=O)N[C@@H](CCCNC(=N)N)C(=O)N[C@@H](CCC(N)=O)C(=O)N[C@@H](CC(=O)O)C(=O)N[C@H](C(=O)N[C@@H](CCSC)C(=O)N[C@@H](CO)C(=O)N[C@@H](CCCNC(=N)N)C(N)=O)[C@@H](C)CC)C(C)C)[C@@H](C)O)[C@@H](C)CC [SEQ ID NO: 44, Trans-3-hexenoyl-YADAIFTDSYRKVLAQLSARQDIMSR-NH2] (HELM PEPTIDE1{[CC/C=C/CC(=O)[*:2]].Y.A.D.A.I.F.T.D.S.Y.R.K.V.L.A.Q.L.S.A.R.Q.D.I.M.S.R.[am]}$$$$V2.0) | 15.2 | 984 | 44.2
4 | CC/C=C/CC(=O)N[C@@H](Cc1ccc(O)cc1)C(=O)N[C@@H](C)C(=O)N[C@@H](CC(=O)O)C(=O)N[C@@H](C)C(=O)N[C@H](C(=O)N[C@@H](Cc1ccccc1)C(=O)N[C@H](C(=O)N[C@@H](CC(=O)O)C(=O)N[C@@H](CO)C(=O)N[C@@H](Cc1ccc(O)cc1)C(=O)N[C@@H](CCCNC(=N)N)C(=O)N[C@@H](CCCCN)C(=O)N[C@H](C(=O)N[C@@H](CC(C)C)C(=O)N[C@@H](C)C(=O)N[C@@H](CCC(N)=O)C(=O)N[C@@H](CC(C)C)C(=O)N[C@@H](CO)C(=O)N[C@@H](C)C(=O)N[C@@H](CCCNC(=N)N)C(=O)N[C@@H](CCC(N)=O)C(=O)N[C@@H](CC(=O)O)C(=O)N[C@H](C(=O)N[C@@H](CC(C)C)C(=O)N[C@@H](C)C(=O)N[C@@H](CCCNC(=N)N)C(N)=O)[C@@H](C)CC)C(C)C)[C@@H](C)O)[C@@H](C)CC [SEQ ID NO: 45, Trans-3-hexenoyl-YADAIFTDSYRKVLAQLSARQDILAR-NH2] (HELM PEPTIDE1{[CC/C=C/CC(=O)[*:2]].Y.A.D.A.I.F.T.D.S.Y.R.K.V.L.A.Q.L.S.A.R.Q.D.I.L.A.R.[am]}$$$$V2.0) | 102.1 | 1953 | 78.8
5 | CC/C=C/CC(=O)N[C@@H](Cc1ccc(O)cc1)C(=O)N[C@@H](C)C(=O)N[C@@H](CC(=O)O)C(=O)N[C@@H](C)C(=O)N[C@H](C(=O)N[C@@H](Cc1ccccc1)C(=O)N[C@H](C(=O)N[C@@H](CC(=O)O)C(=O)N[C@@H](CO)C(=O)N[C@@H](Cc1ccc(O)cc1)C(=O)N[C@@H](CCCNC(=N)N)C(=O)N[C@@H](CCCCN)C(=O)N[C@H](C(=O)N[C@@H](CC(C)C)C(=O)N[C@@H](C)C(=O)N[C@@H](CCC(N)=O)C(=O)N[C@@H](CC(C)C)C(=O)N[C@@H](CO)C(=O)N[C@@H](C)C(=O)N[C@@H](CCCNC(=N)N)C(=O)N[C@@H](CCC(N)=O)C(=O)N[C@@H](CC(=O)O)C(=O)N[C@H](C(=O)N[C@@H](CC(C)C)C(=O)N[C@@H](CO)C(=O)N[C@H](CCCNC(=N)N)C(N)=O)[C@@H](C)CC)C(C)C)[C@@H](C)O)[C@@H](C)CC [SEQ ID NO: 46, Trans-3-hexenoyl-YADAIFTDSYRKVLAQLSARQDILS-r-NH2] (HELM PEPTIDE1{[CC/C=C/CC(=O)[*:2]].Y.A.D.A.I.F.T.D.S.Y.R.K.V.L.A.Q.L.S.A.R.Q.D.I.L.S.[dR].[am]}$$$$V2.0) | 10.6 | 1453 | 57.3
